Results taken from patent publication US7807678B2, “Peptidomimetics of biologically active metallopeptides” (Palatin Technologies, Inc., priority 2001, dated 2010).
Like-named read-outs stand apart in the source and are kept apart here. Non-standard residues stand in square brackets, D forms with d. Residues, ends and D or L forms follow the SMILES beside them. *: point of attachment. Hyp = O=C(O)[C@@H]1C[C@@H](O)CN1; Nle = CCCC[C@H](N)C(=O)O; NH(CH2)3NH2 = NCCCN*; Bn = c1ccc(C*)cc1

Tests used:
[1] = target: MC4-R (Homo sapiens, UniProt P32245); assay: Competitive inhibition binding assay, 125I-NDP-α-MSH, MC4-R; design: expressed in transfected cells; conditions: for Inhibition at 1 μM MC4-R: 1 μM compound, inhibition of 125I-NDP-α-MSH binding, mean of triplicates, results less than 0% reported as 0%
Sequence of MC4-R (P32245 whole entry): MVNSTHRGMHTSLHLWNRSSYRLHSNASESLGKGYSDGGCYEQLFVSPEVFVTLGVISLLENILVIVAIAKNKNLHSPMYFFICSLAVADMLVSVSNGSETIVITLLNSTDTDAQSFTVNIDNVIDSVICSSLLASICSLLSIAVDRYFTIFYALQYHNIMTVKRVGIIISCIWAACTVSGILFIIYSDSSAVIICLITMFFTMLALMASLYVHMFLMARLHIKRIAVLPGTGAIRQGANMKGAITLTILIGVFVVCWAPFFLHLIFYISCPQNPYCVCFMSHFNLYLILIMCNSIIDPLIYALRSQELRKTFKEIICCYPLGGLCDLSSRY
How it was run: (§1)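 Membranes from hMC3-R, hMC4-R or hMC5-R cells, or B-16 mouse melanoma cells (MC1-R), were incubated 90 min at room temperature with 0.4 nM 125I-NDP-α-MSH in HEPES pH 7.2 with Mg2+/Ca2+/K+, and test compound generally at 1 μM. Filter-bound radioactivity was gamma counted. Specific binding was defined with 1 μM α-MSH; triplicate means.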

[2] = target: T1, MC1-R (B-16 mouse melanoma cells) (Mus musculus, UniProt Q01727); assay: Competitive inhibition binding assay, 125I-NDP-α-MSH, MC1-R; conditions: for Inhibition at 1 μM MC1-R: 1 μM compound, inhibition of 125I-NDP-α-MSH binding, mean of triplicates, results less than 0% reported as 0%
T1 construct: B-16 mouse melanoma cells (containing MC1-R); endogenous in cells; host or cells: B-16 mouse melanoma cells
T1 sequence (Q01727 whole entry): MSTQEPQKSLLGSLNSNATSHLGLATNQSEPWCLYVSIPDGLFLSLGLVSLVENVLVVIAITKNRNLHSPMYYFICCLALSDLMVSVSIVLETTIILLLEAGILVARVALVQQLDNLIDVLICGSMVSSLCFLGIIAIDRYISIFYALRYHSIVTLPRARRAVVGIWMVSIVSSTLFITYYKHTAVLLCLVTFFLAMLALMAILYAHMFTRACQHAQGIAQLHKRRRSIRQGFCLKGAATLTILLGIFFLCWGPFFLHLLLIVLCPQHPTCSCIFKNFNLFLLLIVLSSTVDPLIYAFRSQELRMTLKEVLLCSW
How it was run: as §1

[3] = target: T2, MC4-R (HEK-293 cells) (Homo sapiens, UniProt P32245); assay: cAMP assay for agonist/antagonist status, MC4-R; type: cell-based
T2 construct: expressed in transfected cells; host or cells: HEK-293
T2 sequence (P32245 whole entry): as the sequence (P32245 whole entry) above
Procedure: (§2) The Ki (nM) of certain peptidomimetics were determined, as was the agonist/antagonist status with respect to MC4-R, Functional evaluation of compounds at melanocortin receptors was performed by measuring the accumulation of intracellular cAMP in HEK-293 cells expressing MC3-R, MC4-R or MC5-R, and in B-16 mouse melanoma cells (containing MC1-R). Antagonistic activity was determined by measuring the inhibition of α-MSH-induced cAMP levels following exposure to the compounds. Cells, suspended in Earle's Balanced Salt Solution containing 10 mM HEPES, pH 7.5, 5 mM MgCl2, 1 mM glutamine, 0.1% albumin and 0.6 mM 3-isobutyl-1-methyl-xanthine, a phosphodiesterase inhibitor, were plated in 96 well plates at a density of 0.5×10^5 cells per well. Cells were incubated with the test compounds in the presence or absence of α-MSH for 1 hour at 37° C. cAMP levels were measured by EIA (Amersham) in the cell lysates. Data analysis and EC50 values were determined using nonlinear regression analysis with Prism Graph-Pad software.

[4] = target: T1, MC1-R (B-16 mouse melanoma cells); assay: cAMP assay for agonist/antagonist status, MC1-R; type: cell-based
Procedure: as §2

[5] = target: T3, MC5-R (HEK-293 cells) (Homo sapiens, UniProt P33032); assay: cAMP assay for agonist/antagonist status, MC5-R; type: cell-based
T3 construct: expressed in transfected cells; host or cells: HEK-293
T3 sequence (P33032 whole entry): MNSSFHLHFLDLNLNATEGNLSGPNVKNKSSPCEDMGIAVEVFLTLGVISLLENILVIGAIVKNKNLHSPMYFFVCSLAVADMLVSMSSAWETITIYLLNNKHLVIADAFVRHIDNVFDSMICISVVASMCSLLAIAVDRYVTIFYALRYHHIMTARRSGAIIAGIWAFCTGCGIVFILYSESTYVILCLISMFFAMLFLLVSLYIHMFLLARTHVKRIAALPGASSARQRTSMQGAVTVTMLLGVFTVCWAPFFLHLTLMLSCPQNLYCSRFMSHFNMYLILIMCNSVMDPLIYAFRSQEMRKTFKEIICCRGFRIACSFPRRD
Procedure: as §2

[6] = target: MC5-R (Homo sapiens, UniProt P33032); assay: Competitive inhibition binding assay, 125I-NDP-α-MSH, MC5-R; design: expressed in transfected cells; conditions: for Inhibition at 1 μM MC5-R: 1 μM compound, inhibition of 125I-NDP-α-MSH binding, mean of triplicates, results less than 0% reported as 0%
Sequence of MC5-R (P33032 whole entry): as above
How it was run: as §1

[7] = target: MC3-R (Homo sapiens, UniProt P41968); assay: Competitive inhibition binding assay, 125I-NDP-α-MSH, MC3-R; design: expressed in transfected cells; conditions: for Inhibition at 1 μM MC3-R: 1 μM compound, inhibition of 125I-NDP-α-MSH binding, mean of triplicates, results less than 0% reported as 0%
Sequence of MC3-R (P41968 whole entry): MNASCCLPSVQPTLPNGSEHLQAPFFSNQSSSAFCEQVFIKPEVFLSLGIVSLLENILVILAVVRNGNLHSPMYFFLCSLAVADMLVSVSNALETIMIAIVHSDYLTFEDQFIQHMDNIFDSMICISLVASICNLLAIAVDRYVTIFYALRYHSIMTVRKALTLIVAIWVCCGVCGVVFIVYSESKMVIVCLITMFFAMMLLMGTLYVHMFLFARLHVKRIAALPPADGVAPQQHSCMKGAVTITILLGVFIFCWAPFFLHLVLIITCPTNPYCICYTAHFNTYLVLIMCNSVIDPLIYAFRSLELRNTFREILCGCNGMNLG
How it was run: as §1

Inhibition at 1 μM MC4-R [1] [%] | Inhibition at 1 μM MC1-R [2] [%] | agonist/antagonist status as to MC4-R [3] | agonist/antagonist status as to MC1-R [4] | agonist/antagonist status as to MC5-R [5] | Inhibition at 1 μM MC5-R [6] [%] | Inhibition at 1 μM MC3-R [7] [%] | agonist/antagonist status as to MC1-R ([4]; listed as Compound 1) | inhibition at 1 µM [1] [%] | inhibition at 1 µM [2] [%] | inhibition at 1 µM [6] [%] | inhibition at 1 µM [7] [%] | Structure (SMILES)
98 | 40 | agonist | agonist | agonist | 76 | 47 |  |  |  |  |  | NCCCC[C@H]1C(=O)N(CCc2ccc3ccccc3c2)CCN1C(=O)[C@@H](Cc1ccc(Cl)cc1Cl)NC(=O)[C@@H](N)COCc1ccccc1 [Example 22]
100 | 63 | agonist | agonist | agonist | 80 | 62 |  |  |  |  |  | NCCCC[C@H]1C(=O)N(CCc2ccc3ccccc3c2)CCN1C(=O)[C@@H](Cc1ccc(Cl)cc1Cl)NC(=O)[C@@H]1Cc2ccccc2CN1 [Example 23]
99 | 30 | agonist | agonist | agonist | 78 | 34 |  |  |  |  |  | C[C@@H](OCc1ccccc1)[C@H](N)C(=O)N[C@H](Cc1ccc(Cl)cc1Cl)C(=O)N1CCN(CCc2ccc3ccccc3c2)C(=O)[C@@H]1CCCCN [Example 24]
8 | 91 |  | agonist |  | 25 | 13 | full agonistic activity |  |  |  |  | CCCC[C@H](NC(C)=O)C(=O)N[C@@H](C)C(=O)N[C@@H](Cc1cnc[nH]1)C(=O)N[C@H](Cc1ccccc1)C(=O)N1C[C@H](OCc2ccccc2)C[C@H]1C(=O)NCCCN [Example 133] (Ac-[Nle]AH[dF][Hyp](Bn)-{NH(CH2)3NH2})
13 | 0 |  |  |  | 1 | 0 |  |  |  |  |  | NCCCNC(=O)[C@@H]1C[C@@H](OCc2ccccc2)CN1C(=O)[C@@H](Cc1ccccc1)NC(=O)[C@@H](N)Cc1ccc2ccccc2c1 [Example 164]
16 | 0 |  |  |  | 0 | 2 |  |  |  |  |  | NCCCNC(=O)[C@@H]1C[C@@H](OCc2ccccc2)CN1C(=O)[C@@H](Cc1ccccc1)NC(=O)[C@@H](N)Cc1cccc2ccccc12 [Example 165]
8 | 0 |  |  |  | 0 | 13 |  |  |  |  |  | NCCCNC(=O)[C@@H]1C[C@@H](OCc2ccccc2)CN1C(=O)[C@@H](Cc1ccccc1)NC(=O)[C@H](N)Cc1cccc2ccccc12 [Example 166]
8 | 22 |  |  |  | 5 | 0 |  |  |  |  |  | [2H]N1CCCC1C(=O)NC(Cc1ccccc1)C(=O)N1CC(OCc2ccccc2)CC1C(=O)NCCCN (stereo not drawn) [Example 167]
10 | 18 |  |  |  | 0 | 0 |  |  |  |  |  | NCCCNC(=O)[C@@H]1C[C@@H](OCc2ccccc2)CN1C(=O)[C@@H](Cc1ccccc1)NC(=O)C1CCC(CN)CC1 (stereo partly drawn) [Example 168]
6 | 12 |  |  |  | 0 | 0 |  |  |  |  |  | NCCCNC(=O)[C@@H]1C[C@@H](OCc2ccccc2)CN1C(=O)[C@@H](Cc1ccccc1)NC(=O)c1ccc(CN)cc1 [Example 169]
9 | 11 |  |  |  | 25 | 0 |  |  |  |  |  | NCCCNC(=O)[C@@H]1C[C@@H](OCc2ccccc2)CN1C(=O)[C@@H](Cc1ccccc1)NC(=O)[C@@H](N)Cc1ccc(-c2ccccc2)cc1 [Example 171]
4 | 14 |  |  |  | 0 | 0 |  |  |  |  |  | NCCCNC(=O)[C@@H]1C[C@@H](OCc2ccccc2)CN1C(=O)[C@@H](Cc1ccccc1)NC(=O)[C@@H]1Cc2ccccc2N1 [Example 172]
7 | 7 |  |  |  | 0 | 13 |  |  |  |  |  | NCCCNC(=O)[C@@H]1C[C@@H](OCc2ccccc2)CN1C(=O)[C@@H](Cc1ccccc1)NC(=O)[C@H](N)C(c1ccccc1)c1ccccc1 [Example 173]
15 | 10 |  |  |  | 2 | 21 |  |  |  |  |  | NCCCNC(=O)[C@@H]1C[C@@H](OCc2ccccc2)CN1C(=O)[C@@H](Cc1ccccc1)NC(=O)[C@@H](N)C1Cc2ccccc2C1 [Example 174]
19 | 3 |  |  |  | 0 | 0 |  |  |  |  |  | NCCCNC(=O)[C@@H]1C[C@@H](OCc2ccccc2)CN1C(=O)[C@@H](Cc1ccccc1)NC(=O)[C@H](N)C1Cc2ccccc2C1 [Example 175]
8 | 18 |  |  |  | 8 | 0 |  |  |  |  |  | CC(O)C(N)C(=O)NC(Cc1ccccc1)C(=O)N1CC(OCc2ccccc2)CC1C(=O)NCCCN (stereo not drawn) [Example 176]
7 | 2 |  |  |  | 0 | 0 |  |  |  |  |  | NCCCNC(=O)C1CC(OCc2ccccc2)CN1C(=O)C(Cc1ccccc1)NC(=O)C1CCC(=O)N1C(=O)OCc1ccccc1 (stereo not drawn) [Example 177]
0 | 33 |  |  |  | 0 | 0 |  |  |  |  |  | CCCCCCC(=O)NC(COCc1ccccc1)C(=O)NC(Cc1ccc2ccccc2c1)C(=O)N1CC2CC(Oc3ccc4ccccc4c3)CN2C(=O)C1CCCCN (stereo not drawn) [Example 178]
 |  |  |  |  |  |  |  | 0 | 0 | 0 | 0 | [2H]N[C@@H](Cc1cnc[nH]1)C(=O)N[C@@H](Cc1ccccc1)C(=O)N1CC2C[C@H](Oc3ccc4ccccc4c3)CN2C(=O)[C@@H]1CCCCN (stereo partly drawn) [Example 179]
